Reference: EP0137692A2, “New antibiotic, neocopiamycin A and the production thereof” (Arai, Tadashi, Prof., priority 1983, dated 1985)

Columns and labels:
[1] = test system: yeasts and fungi; test: MIC by serial two-fold agar dilution method (Sabouraud dextrose agar); assay type: cell-based
Experimental: (§1) Neocopiamycin A has the following physico-chemical properties. • (1) Color and Appearance: neutral, colorless, hygroscopic powder. • (2) Melting point: 134 - 136°C. […] Neocopiamycin A gives negative reactions to biuret, ninhydrin, Molisch, Fehling, ferric chloride, Liebermann-Burchard, 2,4-dinitrophenylhydrazine reagents, but possitive reactions to Dragendorff, platinic iodide and Sakaguchi reagents. It also gives pinkish coloration with conc. sulfuric acid, which subsequently turned brown with time. • (8) Ultra violet absorption spectrum: As shown in Fig. 1 of the accompanying drawings. λ^MeOHmax 205 nm (log ε 4.2) • (9) Infrared absorption spectrum: As-shown in Fig. 2 of the accompanying drawing. IR (KBr)(cm^-1) : 3380, 2975, 2925, 1715, 1655, 1595, 1455, 1375, 1240, 1140, 1070, 975, 845. • (10) NMR spectrum: As shown in Fig. 3 of the accompanying drawing. • (11) Rf values of TLC: • A purified sample of neocopiamycin A gives only one spot when chromatographed on thin layer chromatography TLC (Silica gel 60, plate F254) in different solvent systems and bioautographed against Candida albicans or absorption of ultraviolet. […] [formula] • (12) Chemical structure: • According to spectral data and physicochemical characteristics, the sturcture of neocopiamycin A can be presumed to have the following formula:- [drawing 3] • Neocopiamycin A has the following biological properties. • (13) Antimicrobial Activity • The minimum inhibitory concentration (MIC) of neocopiamycin A against bacteria, yeast and fungi were determined by a serial two-fold agar dilution method. […] The MICs were determined after incubation for 24 hours or 4 days at 37^*C for bacteria, and after incubation 24 hours to 7 days at 37°C for yeasts and fungi, depending on the test strain. • Antimicrobial spectrum of neocopiamycin A is given in Tables 2, 3 and 4 below. […] Antifungal spectra of copiamycin were similarly determined for the comparison purpose. […] [formula] • (14) Acute Toxicity • Acute toxicity of neocopiamycin A was determined with ddY mice weighing 20 to 21 g. […]

[2] = test system: Gram-positive bacteria; test: MIC by serial two-fold agar dilution method (Muller-Hilton agar); assay type: cell-based; conditions: 24 hours or 4 days at 37°C
Experimental: as §1, with “reagents.” for “reagents. It also gives pinkish coloration with conc. sulfuric acid, which subsequently turned brown with time. • (8) Ultra violet absorption spectrum: As shown in Fig. 1 of the accompanying drawings. λ^MeOHmax 205 nm (log ε 4.2) • (9) Infrared absorption spectrum: As-shown in Fig. 2 of the accompanying drawing. IR (KBr)(cm^-1) : 3380, 2975, 2925, 1715, 1655, 1595, 1455, 1375, 1240, 1140, 1070, 975, 845. • (10) NMR spectrum: As shown in Fig. 3 of the accompanying drawing. • (11) Rf values of TLC: • A purified sample of neocopiamycin A gives only one spot when chromatographed on thin layer chromatography TLC (Silica gel 60, plate F254) in different solvent systems and bioautographed against Candida albicans or absorption of ultraviolet.”

[3] = test system: Gram-negative bacteria; test: as above; assay type: cell-based; conditions: 24 hours or 4 days at 37°C
Experimental: as §1, with “reagents.” for “reagents. It also gives pinkish coloration with conc. sulfuric acid, which subsequently turned brown with time. • (8) Ultra violet absorption spectrum: As shown in Fig. 1 of the accompanying drawings. λ^MeOHmax 205 nm (log ε 4.2) • (9) Infrared absorption spectrum: As-shown in Fig. 2 of the accompanying drawing. IR (KBr)(cm^-1) : 3380, 2975, 2925, 1715, 1655, 1595, 1455, 1375, 1240, 1140, 1070, 975, 845. • (10) NMR spectrum: As shown in Fig. 3 of the accompanying drawing. • (11) Rf values of TLC: • A purified sample of neocopiamycin A gives only one spot when chromatographed on thin layer chromatography TLC (Silica gel 60, plate F254) in different solvent systems and bioautographed against Candida albicans or absorption of ultraviolet.”

[4] = Solubility; assay type: physicochemical
Experimental: as §1, with “reagents.” for “reagents. It also gives pinkish coloration with conc. sulfuric acid, which subsequently turned brown with time. • (8) Ultra violet absorption spectrum: As shown in Fig. 1 of the accompanying drawings. λ^MeOHmax 205 nm (log ε 4.2) • (9) Infrared absorption spectrum: As-shown in Fig. 2 of the accompanying drawing. IR (KBr)(cm^-1) : 3380, 2975, 2925, 1715, 1655, 1595, 1455, 1375, 1240, 1140, 1070, 975, 845. • (10) NMR spectrum: As shown in Fig. 3 of the accompanying drawing. • (11) Rf values of TLC: • A purified sample of neocopiamycin A gives only one spot when chromatographed on thin layer chromatography TLC (Silica gel 60, plate F254) in different solvent systems and bioautographed against Candida albicans or absorption of ultraviolet.”

[5] = test system: Trichomonas vaginalis; test: Growth inhibition in thioglycolate medium; assay type: cell-based; design: unit not given here; conditions: thioglycolate medium with 0.5% dextrin and 15% bovine serum
[6] = test system: ddY mice; test: Acute toxicity; assay type: in vivo; conditions: for dose tolerated by all mice for 14 days without any toxic signs: mouse, in vivo
Experimental: Neocopiamycin A has the following physico-chemical properties. • (1) Color and Appearance: neutral, colorless, hygroscopic powder. • (2) Melting point: 134 - 136°C. […] Neocopiamycin A gives negative reactions to biuret, ninhydrin, Molisch, Fehling, ferric chloride, Liebermann-Burchard, 2,4-dinitrophenylhydrazine reagents, but possitive reactions to Dragendorff, platinic iodide and Sakaguchi reagents. It also gives pinkish coloration with conc. sulfuric acid, which subsequently turned brown with time. • (8) Ultra violet absorption spectrum: As shown in Fig. 1 of the accompanying drawings. λ^MeOHmax 205 nm (log ε 4.2) • (9) Infrared absorption spectrum: As-shown in Fig. 2 of the accompanying drawing. IR (KBr)(cm^-1) : 3380, 2975, 2925, 1715, 1655, 1595, 1455, 1375, 1240, 1140, 1070, 975, 845. • (10) NMR spectrum: As shown in Fig. 3 of the accompanying drawing. • (11) Rf values of TLC: • A purified sample of neocopiamycin A gives only one spot when chromatographed on thin layer chromatography TLC (Silica gel 60, plate F254) in different solvent systems and bioautographed against Candida albicans or absorption of ultraviolet. The Rf values and solvent systems employed are summarized in Table 1. [formula] • (12) Chemical structure: • According to spectral data and physicochemical characteristics, the sturcture of neocopiamycin A can be presumed to have the following formula:- [drawing 3] • Neocopiamycin A has the following biological properties. • (13) Antimicrobial Activity • The minimum inhibitory concentration (MIC) of neocopiamycin A against bacteria, yeast and fungi were determined by a serial two-fold agar dilution method. The medium used was Muller-Hilton agar for bacteria, and Sabouraud dextrose agar for yeasts and fungi. The antibiotic was dissolved in a small amount of ethanol and diluted with sterilized water to give final agar media containing less than one percent of the organic solvent, which was not a harmful concentration against the organisms tested. The MICs were determined after incubation for 24 hours or 4 days at 37^*C for bacteria, and after incubation 24 hours to 7 days at 37°C for yeasts and fungi, depending on the test strain. • Antimicrobial spectrum of neocopiamycin A is given in Tables 2, 3 and 4 below. […] Furthermore, it should be pointed out that neocopiamycin A inhibits the growth of both the filamentous and yeast- like fungi at the concentrations below 10 µg/ml. […] Antifungal spectra of copiamycin were similarly determined for the comparison purpose. [formula] [formula] • (14) Acute Toxicity • Acute toxicity of neocopiamycin A was determined with ddY mice weighing 20 to 21 g. Neocopiamycin A was finely pulverized and suspended in 15% aqueous ethanol solution for intraveneous, intraperitoneal and oral administrations. […]

## CC(CCC/C=C/CCCN=C(N)N)CC(C)C1OC(=O)C=CC(C)C(O)CC(O)C(C)C(O)CCC(C)C(O)CC2(O)OC(CC(OC(=O)CC(=O)O)CC(O)CC(O)C(C)C(O)/C=C\C1C)CC(O)C2O (stereo not drawn) [neocopiamycin A]
[1]; Sabouraud dextrose agar, incubation 24 hours to 7 days at 37°C
  concentrations inhibiting the growth of both the filamentous and yeast-like fungi: below 10 µg/ml
[1]; Tables 2, 3 and 4, comparison with copiamycin
  antimicrobial activity compared with copiamycin: much higher antimicrobial activity than copiamycin
[1]; wide range of fungi, yeasts, agar dilution
  antimicrobial activity against fungi, yeasts: active
[2]
  antimicrobial activity against Gram-positive bacteria: active
[3]
  antimicrobial activity against Gram-negative bacteria: inactive
[4]; acetone, dioxane, chloroform, carbon tetrachloride, ethyl acetate, butyl acetate, petroleum ether, benzene, methyl isobutyl ketone and water
  Solubility: sparingly soluble or insoluble
[4]; methanol, ethanol, n-butanol, pyridine, dimethylformamide, glacial acetic acid
  Solubility: soluble
[5]
  concentration inhibiting the growth of Trichomonas vaginalis: 1.56
[6]; comparison with copiamycin
  toxicity compared with copiamycin: less toxic than copiamycin
[6]; ip, 336 h
  dose tolerated by all mice for 14 days without any toxic signs: more than 1,000 mg/kg
[6]; iv
  dose tolerated by all mice for 14 days without any toxic signs: 30
[6]; po, 336 h
  dose tolerated by all mice for 14 days without any toxic signs: more than 1,000 mg/kg
